Results published in US7772180B2, “Hepatitis C virus inhibitors” (Bristol-Myers Squibb Company, priority 2006, dated 2010).
Read-outs that look alike come from different tables or passages of the source.

How the values were obtained:
[1] = molecular target: T1, HCV NS3/4A protease complex, BMS strain (UniProt P27958, species not given/STRAIN_BMS); assay: FRET peptide assay to monitor HCV NS3/4A proteolytic activity (BMS strain); format: biochemical, Hepatitis C virus (genotype 1a); details: read-out: IC50 against the NS3/4A BMS strain in the enzyme assay; BMS strain
T1 construct: other: BMS strain; said of H77 and J4L6S; fused on or other part: A three-lysine solubilising tail at the C-terminus of NS4A; A His tag is implied by the pET21b vector and Ni-NTA purification; Both are printed for the H77 and J4L6S constructs and apply to BMS by inference
Method in brief: (§1)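 Purified recombinant NS3/4A complex from genotype 1a BMS strain, 2-3 nM final, with RET S1 EDANS/DABCYL depsipeptide substrate at 2 μM final in HEPES pH 7.5, NaCl, Triton, glycerol, βME. Cleavage followed in real time by fluorescence. For high-potency compounds: 50 μg/ml BSA added, protease lowered to 300 pM.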
T1 sequence (P27958 1027-1657, stated change not applied, one chain of several): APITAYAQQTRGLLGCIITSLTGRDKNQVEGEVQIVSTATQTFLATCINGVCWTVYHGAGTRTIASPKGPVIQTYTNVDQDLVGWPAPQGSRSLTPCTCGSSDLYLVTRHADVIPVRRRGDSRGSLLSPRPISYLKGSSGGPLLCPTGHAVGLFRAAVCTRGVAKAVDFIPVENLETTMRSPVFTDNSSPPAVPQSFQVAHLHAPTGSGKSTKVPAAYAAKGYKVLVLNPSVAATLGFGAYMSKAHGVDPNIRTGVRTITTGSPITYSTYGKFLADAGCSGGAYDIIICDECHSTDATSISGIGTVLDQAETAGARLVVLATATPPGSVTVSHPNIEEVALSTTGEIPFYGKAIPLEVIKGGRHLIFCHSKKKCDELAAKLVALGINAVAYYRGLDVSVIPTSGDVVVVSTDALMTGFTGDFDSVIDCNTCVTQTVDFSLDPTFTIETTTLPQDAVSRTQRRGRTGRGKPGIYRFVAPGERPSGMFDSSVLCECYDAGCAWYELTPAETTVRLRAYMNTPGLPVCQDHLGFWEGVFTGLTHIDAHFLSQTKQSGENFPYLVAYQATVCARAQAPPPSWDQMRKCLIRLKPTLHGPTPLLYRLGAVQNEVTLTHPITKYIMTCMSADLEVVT

[2] = molecular target: T2, HCV NS3/4A protease complex, BMS strain (UniProt P27958, species not given/STRAIN_BMS); assay: as above; format: biochemical, Hepatitis C virus (genotype 1a); details: read-out: HCV Protease (IC50); NS3/4A BMS strain; activity range class
T2 construct: other: NS3/4A BMS strain; activity range class; numeric values, unit not given; said of H77 and J4L6S; fused on or other part: A three-lysine solubilising tail at the C-terminus of NS4A; A His tag is implied by the pET21b vector and Ni-NTA purification; Both are printed for the H77 and J4L6S constructs and apply to BMS by inference
Method in brief: as §1
T2 sequence (P27958 1027-1657, stated change not applied, one chain of several): as above

C=C[C@@H]1C[C@]1(NC(=O)[C@@H]1C[C@@H](Oc2nc(N(C)C)cc3cc(OC)ccc23)CN1C(=O)C(Nc1cc(C)cc(C)n1)C(C)(C)C)C(=O)NS(=O)(=O)C1CC1 (single isomer, unassigned) [Compound 18]
IC50 [1]: 3.4 nM | IC50 [2]: 0.6 to 20 nM
